Results: paper PMC4506051, “Pharmacokinetic Profiles of Active Ingredients and Its Metabolites Derived from Rikkunshito, a Ghrelin Enhancer, in Healthy Japanese Volunteers: A Cross-Over, Randomized Study” (PLoS ONE, 2015)
Where two headings read alike, the source gives them in different places.

How the values were obtained:
[1] = Stability of ingredients in gastric pH solution (pH 1.2, 37°C); assay type: physicochemical; conditions: pH 1.2
Protocol: Rikkunshito gradually dissolved in acidic solution (pH 1.2) at 37°C, and the concentration of atractylodin after adding 0.25, 0.5, 1, and 2 h was measured by gas chromatography–mass spectrometry.

ghrelin secretion = conditions: cited from earlier work
[2] = tested on: cisplatin-induced anorexia model; conditions: cited from earlier work; for Acylated ghrelin level in blood: oral administration, cisplatin-induced anorexia model
5-HT2BR = tested on: 5-HT2BR; design: method as in PMID 18439428; conditions: cited from earlier work
[3] = Method validation: long-term stability in plasma
[4] = Method validation: short-term stability in plasma
[5] = Method validation: freeze-thaw stability in plasma
[6] = Method validation: stability in standard, stock and working solution
[7] = Dose proportionality (linearity) test by power model for C max and AUC0-last; conditions: for Dose proportionality test using power model, Inference: linear when 90% CI of β included 1, CIlower ≥0.8, and CIupper ≤1.25; for Dose proportionality test using power model, β: rikkunshito 2.5, 5.0 or 7.5 g
Protocol: The dose proportionality was analyzed via a power model [21, 22]. […] Evaluation of linearity of the dosage-exposure relationship was conducted with Phoenix WinNonlin and SAS 9.2 (SAS Institute, Inc., Cary, NC).

[8] = Formation of ingredients derived from rikkunshito in formulation, blood, and urine (S11 Table summary); conditions: after rikkunshito administration, per ingredient in the formulation
[9] = Exploratory trial: ingredients in β-glucuronidase (enzyme)-treated plasma; assay type: in vivo, human; conditions: rikkunshito 7.5 g
In short: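 Healthy subjects took a single oral 7.5 g dose of rikkunshito; heparinised plasma drawn at 0–8 h and urine collected pre-dose, 0–4 h and 4–8 h. Samples incubated with β-glucuronidase (100 units) 2 h at 37°C, solid-phase extracted and quantified by LC–MS/MS.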

[10] = Exploratory trial: amount of rikkunshito ingredients in urine; assay type: in vivo, human; conditions: mean ± S.D., n = 4
In short: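 LC–MS/MS measurement of rikkunshito constituents in urine fractions (pre-dose, 0–4 h, 4–8 h) following one 7.5 g oral dose. Other constituents: enzymatic deglucuronidation at 37 °C for 2 h, then SPE cleanup with atractylenolide III or digoxin as IS; synephrine: erythromycin IS, Ostro plate.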

[11] = Exploratory trial: ingredients in β-glucuronidase (enzyme)-treated urine; assay type: in vivo, human; conditions: β-glucuronidase-treated, mean ± S.D., n = 4
Protocol: In the first exploratory trial, 20-mL blood samples were collected from the cutaneous vein in the subjects’ forearm via a blood sampling tube that contained heparin at 0 (preadministration), 0.5, 1, 2, 4, and 8 h after a single oral administration of rikkunshito (Lot E24652). The dose of rikkunshito used in this trial was 7.5 g/day, which is the clinical daily dose, to widely explore rikkunshito-derived ingredients that enter the blood. Along with plasma, urine samples were collected at three points: between dinner and bedtime (preadministration), between 0 and 4 h after administration, and between 4 and 8 h after administration. The blood was immediately centrifuged at 1700 ×g for 10 min to obtain plasma. Plasma and urine fractions were stored at −80°C or lower until analysis.
For quantification of 30 ingredients other than atractylodin and synephrine, 25 µL of standard solution or methanol was added to 500 µL plasma or urine samples followed by mixing. Atractylenolide III or digoxin (IS) solution (50 μL) was added to the solutions followed by mixing. For urine, 400 µL of blank plasma was added to the solutions. Ammonium acetate solution (100 mM, 100 or 400 µL) was added to the solutions followed by mixing. For enzymatic treatment, plasma and urine samples were incubated with β-glucuronidase (100 units in 100 mM ammonium acetate) for 2 h at 37°C. A solid-phase cartridge (OASIS HLB, 30 mg/1cc, Waters) was conditioned with methanol and 10 mM ammonium acetate solution, and the samples were loaded onto the cartridge. The cartridge was washed water : methanol (9:1, v/v), and 1.5 mL of methanol and 30 µL of propylene glycol were added to the cartridge to elute the analytes. The mixtures were dried at 25°C under a stream of nitrogen gas. Furthermore, 100 μL of 10 mM ammonium acetate : methanol (8:2, v/v) was added to the dried samples followed by mixing and sonication. The solutions were filtered (0.22 µm) and followed by injection into the LC–MS/MS system. […] Those analytical conditions are summarized in S2 Table and S3 Table.

5-HT2CR = tested on: 5-HT2CR; design: method as in PMID 18439428; conditions: cited from earlier work
[12] = oral administration at a dose of 4.0 mg/kg

COc1ccc(-c2oc3c(OC)c(OC)c(OC)c(OC)c3c(=O)c2OC)cc1OC [Heptamethoxyflavone, 3,3′,4′,5,6,7,8-heptamethoxyflavone]
Stability in gastric pH solution, Quantitative value ([1]; 0.5 h): 25.5 ng/mL
Stability in gastric pH solution, Quantitative value ([1]; 1 h): 30.7 ng/mL
Stability in gastric pH solution, Quantitative value ([1]; 2 h): 28.7 ng/mL
Known pharmacology activities: ghrelin secretion (ghrelin secretion): Ghrelin secretion promoting activity [14, 15]
Acylated ghrelin level in blood [2]: suppressed the decrease of the acylated ghrelin level in blood in a concentration-dependent manner
5-HT2BR inhibitory/antagonistic activity (5-HT2BR): most potent 5-HT2BR antagonistic activity among all rikkunshito ingredients
Long-term stability, RR ([3]; freezer −30°C to −10°C, 13 days, lower concentration (pachymic acid 20, heptamethoxyflavone 8 pg/mL)): 90.3%
Long-term stability, RR ([3]; freezer, 13 days, higher concentration (pachymic acid 800, heptamethoxyflavone 320 pg/mL)): 113.1%
Long-term stability, RR ([3]; freezer, 39 days, higher concentration (800 / 320 pg/mL)): 99.7%
Long-term stability, RR ([3]; freezer, 39 days, lower concentration (20 / 8 pg/mL)): 85.5%
Long-term stability, RR ([3]; freezer, 228 days, higher concentration (800 / 320 pg/mL)): 87.5%
Long-term stability, RR ([3]; freezer, 228 days, lower concentration (20 / 8 pg/mL)): 85.0%
Short-term stability, RR ([4]; room temperature 25 h, higher concentration (pachymic acid 800, heptamethoxyflavone 320 pg/mL)): 91.2%
Short-term stability, RR ([4]; room temperature 25 h, lower concentration (pachymic acid 20, heptamethoxyflavone 8 pg/mL)): 90.3%
Short-term stability, RR ([4]; room temperature (1°C to 30°C) 4 h, higher concentration (800 / 320 / 4000 pg/mL)): 103.3%
Short-term stability, RR ([4]; room temperature (1°C to 30°C) 4 h, lower concentration (20 / 8 / 100 pg/mL)): 99.5%
Freeze-thaw stability, RR ([5]; −30°C to −10°C, 3 cycles, higher concentration (800 / 320 / 4000 pg/mL)): 113.5%
Freeze-thaw stability, RR ([5]; −30°C to −10°C, 3 cycles, lower concentration (20 / 8 / 100 pg/mL)): 107.1%
Working solution stability, RR ([6]; refrigerator 53 days, higher concentration (pachymic acid 10, heptamethoxyflavone 4, naringenin 50 ng/mL)): 100.4%
Working solution stability, RR ([6]; refrigerator 53 days, lower concentration (pachymic acid 0.1, heptamethoxyflavone 0.04, naringenin 0.5 ng/mL)): 109.3%
Working solution stability, RR ([6]; refrigerator 128 days, higher concentration (10 / 4 / 50 ng/mL)): 98.8%
Working solution stability, RR ([6]; refrigerator 128 days, lower concentration (0.1 / 0.04 / 0.5 ng/mL)): 101.6%
Stock solution stability, RR ([6]; refrigerator (1°C to 8°C) 54 days, 0.1 mg/mL (naringenin 0.5 mg/mL)): 54 days: 98.7%
Stock solution stability, RR ([6]; refrigerator (1°C to 8°C) 129 days, 0.1 mg/mL (naringenin 0.5 mg/mL)): 129 days: 92.7%
Dose proportionality test using power model, Inference ([7]; AUC0-last): Nonlinear
Dose proportionality test using power model, β ([7]; AUC0-last): 0.804
Dose proportionality test using power model, Inference ([7]; Cmax): Nonlinear
Dose proportionality test using power model, β ([7]; Cmax): 0.817
Formation of ingredients: form found in Blood [8]: Heptamethoxyflavone
Formation of ingredients: form found in Urine ([8]; BQL = below the quantification limit): BQL

O=C(/C=C/c1ccc(O)cc1)c1ccc(O)cc1O [Isoliquiritigenin]
Cmax ([9]; human, oral, β-glucuronidase-treated plasma, four subjects, read-out: C max in enzyme-treated plasma): 0.0872 ng/mL
concentration at 0.5 h ([9]; human, plasma, oral, β-glucuronidase-treated, 0.5 h, mean ± S.D., n = 4): 0.0872 ± 0.0221 ng/mL
concentration at 1 h ([9]; human, plasma, oral, β-glucuronidase-treated, 1 h, mean ± S.D., n = 4): 0.0555 ± 0.0187 ng/mL
concentration at 2 h ([9]; human, plasma, oral, β-glucuronidase-treated, 2 h, mean ± S.D., n = 4, read-out: Plasma concentration in enzyme-treated plasma, 2 h): 0.0606 ± 0.0774 ng/mL
concentration at 4 h ([9]; human, plasma, oral, β-glucuronidase-treated, 4 h, mean ± S.D., n = 4, read-out: Plasma concentration in enzyme-treated plasma, 4 h): 0.0698 ± 0.0335 ng/mL
concentration at 8 h ([9]; human, plasma, oral, β-glucuronidase-treated, 8 h, mean ± S.D., n = 4, read-out: Plasma concentration in enzyme-treated plasma, 8 h): 0.0238 ± 0.0354 ng/mL
Plasma concentration in enzyme-treated plasma, 0 h ([9]; β-glucuronidase-treated, 0 h (preadministration), mean ± S.D., n = 4): BQL
Amount in urine, 0–4 h ([10]; 0–4 h after single oral rikkunshito 7.5 g): 741 ± 393 ng
Amount in urine, 4–8 h ([10]; 4–8 h after single oral rikkunshito 7.5 g): 1010 ± 451 ng
Amount in urine, Pre ([10]; preadministration (between dinner and bedtime)): 0.688 ± 1.38 ng
Amount in enzyme-treated urine, 0–4 h ([11]; 0–4 h after rikkunshito 7.5 g): 3060 ± 348 ng
Amount in enzyme-treated urine, 4–8 h ([11]; 4–8 h after rikkunshito 7.5 g): 5630 ± 2210 ng
Amount in enzyme-treated urine, Pre ([11]; preadministration): 16.0 ± 17.4 ng
Stability in gastric pH solution, Quantitative value ([1]; 0.5 h): 15.2 ng/mL
Stability in gastric pH solution, Quantitative value ([1]; 1 h): 15.5 ng/mL
Stability in gastric pH solution, Quantitative value ([1]; 2 h): 15.2 ng/mL
Known pharmacology activities: ghrelin secretion (ghrelin secretion): Ghrelin secretion promoting activity [14, 15]
Appetite following cisplatin administration [2, 12]: improves decreased appetite
Plasma ghrelin concentration following cisplatin administration [2, 12]: inhibits a decrease in plasma ghrelin concentration
Acylated ghrelin level in blood [2]: suppressed the decrease of the acylated ghrelin level in blood in a concentration-dependent manner
5-HT2BR inhibitory/antagonistic activity (5-HT2BR): inhibits
5-HT2BR inhibitory/antagonistic activity (5-HT2BR; listed as isoliquiritigenin): inhibit
5-HT2CR inhibitory activity (5-HT2CR): inhibits
5-HT2CR inhibitory activity (5-HT2CR; listed as isoliquiritigenin): inhibit
Long-term stability, RR ([3]; 4 pg/mL, freezer (−30°C to −10°C) for 22 days): 99.0%
Long-term stability, RR ([3]; 4 pg/mL, freezer (−30°C to −10°C) for 31 days): 105.0%
Long-term stability, RR ([3]; 4 pg/mL, freezer (−30°C to −10°C) for 220 days): 102.8%
Long-term stability, RR ([3]; 160 pg/mL, freezer (−30°C to −10°C) for 22 days): 95.0%
Long-term stability, RR ([3]; 160 pg/mL, freezer (−30°C to −10°C) for 31 days): 87.7%
Long-term stability, RR ([3]; 160 pg/mL, freezer (−30°C to −10°C) for 220 days): 85.5%
Short-term stability, RR ([4]; 4 pg/mL, at room temperature for 4 h): 97.0%
Short-term stability, RR ([4]; 4 pg/mL, at room temperature for 24 h): 96.5%
Short-term stability, RR ([4]; 160 pg/mL, at room temperature for 4 h): 85.2%
Short-term stability, RR ([4]; 160 pg/mL, at room temperature for 24 h): 101.2%
Freeze-thaw stability, RR ([5]; 4 pg/mL, deep freezer (−30°C to −10°C), after 3 cycles of freeze-thaw): 95.3%
Freeze-thaw stability, RR ([5]; 160 pg/mL, deep freezer (−30°C to −10°C), after 3 cycles of freeze-thaw): 88.3%
Working solution stability, RR ([6]; 0.02 ng/mL, refrigerator (1°C to 8°C) for 53 days): 89.9%
Working solution stability, RR ([6]; 0.02 ng/mL, refrigerator (1°C to 8°C) for 128 days): 108.2%
Working solution stability, RR ([6]; 2 ng/mL, refrigerator (1°C to 8°C) for 53 days): 92.7%
Working solution stability, RR ([6]; 2 ng/mL, refrigerator (1°C to 8°C) for 128 days): 102.2%
Stock solution stability, RR ([6]; 0.1 mg/mL, refrigerator (1°C to 8°C) for 54 days): 54 days: 96.9%
Stock solution stability, RR ([6]; 0.1 mg/mL, refrigerator (1°C to 8°C) for 129 days): 129 days: 96.9%
Dose proportionality test using power model, β ([7]; AUC0-last): 1.27
Dose proportionality test using power model, β ([7]; Cmax): 0.692
